What follows are compounds tested against Smurf-1 (Homo sapiens (Human), UniProt Q9HCE7) (assay: HECT E3 ligase autoubiquitinylation TR-FRET assay (Smurf-1)). Conditions: 8-point dose-response curve, 3 nM to 10 uM; 45 min incubation.
Format: biochemical
Excerpt: To determine the HECT E3 ligase selectivity of the compounds, a panel of biochemical HECT E3 ligase autoubiquitinylation assays was employed (Smurf-1, Smurf-2, WWP1, WWP2, ITCH, Nedd4, Nedd4L and E6AP). The conjugation of ubiquitin to a protein substrate is a multistep process. In an initial ATP-requiring step, a thioester bond is formed between the carboxyl terminus of ubiquitin and an internal cystein residue of the ubiquitin-activating enzyme (E1). Activated ubiquitin is then transferred to a specific cystein residue of an ubiquitin-conjugating enzyme (E2). E2s donate ubiquitin to a HECT E3 ligase (E3) from which it is transferred to the substrate protein. HECT E3 ligases can auto-ubiquitinylate. This event is detected in the TR-FRET (Time-Resolved Fluorescence Resonance Energy Transfer) assay used in this panel. The reaction mix contains E1, E2, tagged-E3, biotin-conjugated ubiquitin, the compound and ATP in a suitable buffer and is incubated for 45 minutes to allow auto-ubiquitinylation of the E3 ligase. To measure the extent of ubiquitinylated E3 ligase by TR-FRET, the donor fluorophore Europium cryptate (Eu3+ cryptate), conjugated to streptavidin which subsequently binds to biotinylated ubiquitin, and the modified allophycocyanin XL665 (HTRF® primary acceptor fluorophore) coupled to a tag-specific antibody (HA, His or GST), which recognizes the respective E3 ligase fusion proteins, are added after the reaction is complete. When these two fluorophores are brought together by a bimolecular interaction (in this case ubiquitinylation of the E3 ligase), a portion of the energy captured by the Cryptate during excitation is released through fluorescence emission at 620 nm, while the remaining energy is transferred to XL665. This energy is then released by XL665 as specific fluorescence at 665 nm. Light at 665 nm is emitted only through FRET with Europium.
Test and reference compounds are prepared at 180× [final] in 90% DMSO, and diluted 1:3 in 90% DMSO.
For the biochemical assay panel, 50 nl of the test compounds, reference compounds and buffer/DMSO control are transferred to the respective wells of a 384-well white GREINER “SMALL VOLUME” PS plate. The assay panel is run at room temperature on a Biomek FX liquid handling workstation. To the assay plates containing 50 nl compound or control solutions in 90% DMSO, 4.5 ul of E3 ligase solution were added per well, followed by 4.5 ul of the pre-incubated E1/E2/Ub mix or the pre-diluted ubiquitin (LOW control). Plates are shaken vigorously after each addition. In this assay the compound concentrations range from 3 nM to 10 uM in an 8-point dose-response curve.
After an incubation time of 45 min in the dark, the plates are transferred into the Pherastar fluorescence reader to measure the TR-FRET signal.

Sequence of Smurf-1 (Q9HCE7 whole entry): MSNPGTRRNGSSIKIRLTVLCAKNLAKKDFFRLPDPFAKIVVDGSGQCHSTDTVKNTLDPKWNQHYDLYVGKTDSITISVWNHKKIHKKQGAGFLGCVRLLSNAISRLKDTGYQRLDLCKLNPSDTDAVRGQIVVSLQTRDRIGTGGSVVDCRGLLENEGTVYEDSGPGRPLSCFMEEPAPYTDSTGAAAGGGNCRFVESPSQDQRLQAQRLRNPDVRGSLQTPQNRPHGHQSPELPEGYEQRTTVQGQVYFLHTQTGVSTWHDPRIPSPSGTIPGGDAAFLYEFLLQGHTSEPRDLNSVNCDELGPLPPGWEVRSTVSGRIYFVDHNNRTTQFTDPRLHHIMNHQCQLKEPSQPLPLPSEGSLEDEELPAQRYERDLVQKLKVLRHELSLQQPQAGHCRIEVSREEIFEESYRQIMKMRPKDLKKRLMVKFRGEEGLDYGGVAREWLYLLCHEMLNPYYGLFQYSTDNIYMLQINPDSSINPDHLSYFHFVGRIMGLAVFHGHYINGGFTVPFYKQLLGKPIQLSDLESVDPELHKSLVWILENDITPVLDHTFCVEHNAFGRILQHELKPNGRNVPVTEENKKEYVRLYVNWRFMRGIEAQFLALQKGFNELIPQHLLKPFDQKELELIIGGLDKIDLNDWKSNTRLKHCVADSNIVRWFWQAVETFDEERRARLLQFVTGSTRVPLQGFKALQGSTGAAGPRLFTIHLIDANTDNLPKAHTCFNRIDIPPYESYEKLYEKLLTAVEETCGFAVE

| Structure (SMILES) | IC50 |
| --- | --- |
| CO[C@@H]1C[C@@H](C(C)(C)C)O[C@@H](c2onc(C(=O)Nc3c(C)n(C)n(C4CCC4)c3=O)c2C)C1.CO[C@@H]1C[C@@H](c2onc(C(=O)Nc3c(C)n(C)n(C4CCC4)c3=O)c2C)O[C@@H](C(C)(C)C)C1 (mixture of isomers) [Example 14, 5-((2R,4R,6S)-6-(tert-butyl)-4-methoxytetrahydro-2H-pyran-2-yl)-N-(2-cyclobutyl-1,5-dimethyl-3-oxo-2,3-dihydro-1H-pyrazol-4-yl)-4-methylisoxazole-3-carboxamide and 5-((2S,4S,6R)-6-(tert-butyl)-4-methoxytetrahydro-2H-pyran-2-yl)-N-(2-cyclobutyl-1,5-dimethyl-3-oxo-2,3-dihydro-1H-pyrazol-4-yl)-4-methylisoxazole-3-carboxamide] | 2500 nM |
| Cc1c(C(=O)Nc2c(C)n(C)n(C3CCCCC3)c2=O)noc1C1CC=CC(C(C)C)O1 (mixture of isomers) [Example 18] | 91 nM |
| Cc1c(C(=O)Nc2c(C)n(C)n(C3CCCCC3)c2=O)noc1C1CCC2(CC1)OCCO2 [Example 11, N-(2-Cyclohexyl-1,5-dimethyl-3-oxo-2,3-dihydro-1H-pyrazol-4-yl)-4-methyl-5-(1,4-dioxaspiro[4.5]decan-8-yl)isoxazole-3-carboxamide] | 420 nM |
| Cc1c(C(=O)Nc2c(C)n(C)n(C3CCCCC3)c2=O)noc1/C=C\C(C)(C)C [Example 8, (Z)—N-(2-Cyclohexyl-1,5-dimethyl-3-oxo-2,3-dihydro-1H-pyrazol-4-yl)-5-(3,3-dimethylbut-1-en-1-yl)-4-methylisoxazole-3-carboxamide] | 46 nM |
| Cc1c(C(=O)Nc2c(C)n(C)n(C3CCCCC3)c2=O)noc1C1=CCC2(CCOC2)CC1 (centres unmarked) [Example 4, N-(2-Cyclohexyl-1,5-dimethyl-3-oxo-2,3-dihydro-1H-pyrazol-4-yl)-4-methyl-5-(2-oxaspiro[4.5]dec-7-en-8-yl)isoxazole-3-carboxamide] | 100 nM |
| CO[C@H]1C[C@@H](c2onc(C(=O)Nc3c(C)n(C)n(C4CCCCC4)c3=O)c2C)O[C@@H](C(C)(C)C)C1 (racemic) [Example 13, 5-((2S,4R,6R)-6-(tert-butyl)-4-methoxytetrahydro-2H-pyran-2-yl)-N-(2-cyclohexyl-1,5-dimethyl-3-oxo-2,3-dihydro-1H-pyrazol-4-yl)-4-methylisoxazole-3-carboxamide and 5-((2R,4S,6S)-6-(tert-butyl)-4-methoxytetrahydro-2H-pyran-2-yl)-N-(2-cyclohexyl-1,5-dimethyl-3-oxo-2,3-dihydro-1H-pyrazol-4-yl)-4-methylisoxazole-3-carboxamide] | 640 nM |
| CC1=CCC(c2onc(C(=O)Nc3c(C)n(C)n(C4CCCCC4)c3=O)c2C)OC1 (centres unmarked) [Example 21.2, N-(2-cyclohexyl-1,5-dimethyl-3-oxo-2,3-dihydro-1H-pyrazol-4-yl)-4-methyl-5-(5-methyl-3,6-dihydro-2H-pyran-2-yl)isoxazole-3-carboxamide] | 490 nM |
| Cc1c(C(=O)Nc2c(C)n(C)n(C3CCC3)c2=O)noc1[C@H]1CCC[C@@H](C(C)(C)C)O1 (single isomer, unassigned) [Example 15b, 5-((2R,6S)-6-(tert-butyl)tetrahydro-2H-pyran-2-yl)-N-(2-cyclobutyl-1,5-dimethyl-3-oxo-2,3-dihydro-1H-pyrazol-4-yl)-4-methylisoxazole-3-carboxamide or 5-((2S,6R)-6-(tert-Butyl)tetrahydro-2H-pyran-2-yl)-N-(2-cyclobutyl-1,5-dimethyl-3-oxo-2,3-dihydro-1H-pyrazol-4-yl)-4-methylisoxazole-3-carboxamide] | 630 nM |
| CO[C@H]1C[C@@H](c2onc(C(=O)Nc3c(C)n(C)n(C4CCCCC4)c3=O)c2C)O[C@@H](C(C)(C)C)C1 (single isomer, unassigned) [Example 13b, 5-((2S,4R,6R)-6-(tert-butyl)-4-methoxytetrahydro-2H-pyran-2-yl)-N-(2-cyclohexyl-1,5-dimethyl-3-oxo-2,3-dihydro-1H-pyrazol-4-yl)-4-methylisoxazole-3-carboxamide or 5-((2R,4S,6S)-6-(tert-butyl)-4-methoxytetrahydro-2H-pyran-2-yl)-N-(2-cyclohexyl-1,5-dimethyl-3-oxo-2,3-dihydro-1H-pyrazol-4-yl)-4-methylisoxazole-3-carboxamide] | 730 nM |
| Cc1c(C(=O)Nc2c(C)n(C)n(C3CCCCC3)c2=O)noc1C1=CCCCCC1 [Example 1.6, 5-(Cyclohept-1-en-1-yl)-N-(2-cyclohexyl-1,5-dimethyl-3-oxo-2,3-dihydro-1H-pyrazol-4-yl)-4-methylisoxazole-3-carboxamide] | 8 nM |
| Cc1c(C(=O)Nc2c(C)n(C)n(C3CCCCC3)c2=O)noc1C1=CCC(OC(C)C)CC1 (centres unmarked) [Example 5, N-(2-Cyclohexyl-1,5-dimethyl-3-oxo-2,3-dihydro-1H-pyrazol-4-yl)-5-(4-isopropoxycyclohex-1-en-1-yl)-4-methylisoxazole-3-carboxamide] | 310 nM |
| Cc1c(C(=O)Nc2c(C)n(C)n(C3CCCCC3)c2=O)noc1C1=CCC(C(F)(F)F)CC1 (centres unmarked) [Example 1.7, N-(2-Cyclohexyl-1,5-dimethyl-3-oxo-2,3-dihydro-1H-pyrazol-4-yl)-4-methyl-5-(4-(trifluoromethyl)cyclohex-1-en-1-yl)isoxazole-3-carboxamide] | 33 nM |
| Cc1c(C(=O)Nc2c(C)n(C)n(C3CCCCC3)c2=O)noc1[C@@H]1CC=C[C@H](C)O1 (racemic) [Example 19, N-(2-cyclohexyl-1,5-dimethyl-3-oxo-2,3-dihydro-1H-pyrazol-4-yl)-4-methyl-5-((2S,6S)-6-methyl-3,6-dihydro-2H-pyran-2-yl)isoxazole-3-carboxamide and N-(2-cyclohexyl-1,5-dimethyl-3-oxo-2,3-dihydro-1H-pyrazol-4-yl)-4-methyl-5-((2R,6R)-6-methyl-3,6-dihydro-2H-pyran-2-yl)isoxazole-3-carboxamide] | 1800 nM |
| CCC1CC(C)CC=C1c1onc(C(=O)Nc2c(C)n(C)n(C3CCCCC3)c2=O)c1C (centres unmarked) [Example 1.1, N-(2-Cyclohexyl-1,5-dimethyl-3-oxo-2,3-dihydro-1H-pyrazol-4-yl)-5-(6-ethyl-4-methylcyclohex-1-en-1-yl)-4-methylisoxazole-3-carboxamide] | 2.1 nM |
| Cc1c(C(=O)Nc2c(C)n(C)n(C3CCCCC3)c2=O)noc1C1=CCC2(CCCC2)CC1 [Example 2, N-(2-Cyclohexyl-1,5-dimethyl-3-oxo-2,3-dihydro-1H-pyrazol-4-yl)-4-methyl-5-(spiro[4.5]dec-7-en-8-yl)isoxazole-3-carboxamide] | 2.5 nM |
| Cc1c(C(=O)Nc2c(C)n(C)n(C3CCCCC3)c2=O)noc1C1=CCCCC1(C)C [Example 1.2, N-(2-Cyclohexyl-1,5-dimethyl-3-oxo-2,3-dihydro-1H-pyrazol-4-yl)-5-(6,6-dimethylcyclohex-1-en-1-yl)-4-methylisoxazole-3-carboxamide] | 14 nM |
| Cc1c(C(=O)Nc2c(C)n(C)n(C3CCCCC3)c2=O)noc1C1=CCC(C(C)(C)C)CC1 (centres unmarked) [Example 1.4, 5-(4-(tert-Butyl)cyclohex-1-en-1-yl)-N-(2-cyclohexyl-1,5-dimethyl-3-oxo-2,3-dihydro-1H-pyrazol-4-yl)-4-methylisoxazole-3-carboxamide] | 3.2 nM |

From patent US9403810B2, “Carboxamide derivatives” (Novartis AG, priority 2014, dated 2016)
